Like-named read-outs stand apart in the source and are kept apart here.
Tests used:
[1] = Pharmacokinetic study of standard-dose acute gout regimen 4.8 mg over 6 hours (Example 6); conditions: for Cmax / Tmax / half-life: human, in vivo, 4.8 mg
Protocol: This study was a single center, randomized, double-blind, double-dummy pharmacokinetic and exploratory ECG safety study.
Those randomized to moxifloxacin received 1×400 mg tablet.

[2] = standard-dose regimen 4.8 mg over 6 hours, healthy adults, N = 15
[3] = standard-dose regimen 4.8 mg over 6 hours, time after the initial dose, healthy adults, N = 15
[4] = 0.6 mg b.i.d. x 10 days, after last dose (Day 25), healthy adults, N = 13
[5] = single oral 0.6 mg dose, healthy adults, N = 13

`COc1cc2c(c(OC)c1OC)-c1ccc(OC)c(=O)cc1[C@@H](NC(C)=O)CC2` [Colchicine, (−)-N-[(7S,12aS)-1,2,3,10-tetramethoxy-9-oxo-5,6,7,9-tetrahydrobenzo[a]heptalen-7-yl]-acetamide] gave a Cmax ([1]; MEAN, standard-dose regimen 4.8 mg over 6 hours, healthy adults, N = 15) of 6.8 ng/mL, a Cmax ([1]; MEDIAN, standard-dose regimen 4.8 mg over 6 hours, healthy adults, N = 15) of 6.69 ng/mL and a Tmax ([1]; MEAN, standard-dose regimen 4.8 mg over 6 hours, time after the initial dose, healthy adults, N = 15) of roughly 4.5 h. The Tmax ([1]; MEDIAN, standard-dose regimen 4.8 mg over 6 hours, time after the initial dose, healthy adults, N = 15) was 3.12 h, the half-life ([1]; t1/2, MEAN, standard-dose regimen 4.8 mg over 6 hours, healthy adults, N = 15) was 1880 min and the half-life ([1]; t1/2, MEDIAN, standard-dose regimen 4.8 mg over 6 hours, healthy adults, N = 15) was 1970 min. The “CL/F, MAX” value [1, 2] was 78287.41 mL/h, the “CL/F, MEAN” value [1, 2] was 43168.87 mL/h and the “CL/F, MEDIAN” value [1, 2] was 37954.71 mL/h. For the same compound, the “CL/F, MIN” value [1, 2] was 31386.01 mL/h, the “Cmax, MAX” value [1, 2] was 8.60 ng/mL and the “Cmax, MEAN” value [1, 2] was 6.84 ng/mL. The “Cmax, MIN” value [1, 2] was 4.95 ng/mL, the “Kel, MAX” value [1, 2] was 0.0461 h⁻¹ and the “Kel, MEAN” value [1, 2] was 0.0242 h⁻¹. The “Kel, MEDIAN” value [1, 2] was 0.0212 h⁻¹, the “Kel, MIN” value [1, 2] was 0.0147 h⁻¹ and the “Total AUC0-t, MAX” value [1, 2] was 138.24 ng·h/mL. The “Total AUC0-t, MEAN” value [1, 2] was 104.95 ng·h/mL, the “Total AUC0-t, MEDIAN” value [1, 2] was 113.12 ng·h/mL and the “Total AUC0-t, MIN” value [1, 2] was 53.74 ng·h/mL. For the same compound, the “Total AUC∞, MAX” value [1, 2] was 152.93 ng·h/mL, the “Total AUC∞, MEAN” value [1, 2] was 118.20 ng·h/mL and the “Total AUC∞, MEDIAN” value [1, 2] was 126.47 ng·h/mL. For the same compound, the “Total AUC∞, MIN” value [1, 2] was 61.31 ng·h/mL, the “Varea/F, MAX” value [1, 2] was 2639.21 L and the “Varea/F, MEAN” value [1, 2] was 1876.09 L. For the same compound, the “Varea/F, MEDIAN” value [1, 2] was 1902.14 L, the “Varea/F, MIN” value [1, 2] was 805.92 L and the “t1/2, MAX” value [1, 2] was 47.22 h. The “t1/2, MIN” value [1, 2] was 15.03 h, the “Tmax, MAX” value [1, 3] was 7.50 h and the “Tmax, MEAN” value [1, 3] was 4.47 h. For the same compound, the “Subjects with a secondary peak within 6 hours” value ([1]; standard-dose regimen 4.8 mg, 13 of 15 subjects) was 87%, the “AUC0-inf, MAX” value [4] was 67.94465 ng·h/mL and the “AUC0-inf, MEAN” value [4] was 54.19877 ng·h/mL. For the same compound, the “AUC0-inf, MEDIAN” value [4] was 54.11343 ng·h/mL, the “AUC0-inf, MIN” value [4] was 37.59976 ng·h/mL and the “AUC0-t, MAX” value [4] was 58.26535 ng·h/mL. The “AUC0-t, MEAN” value [4] was 43.57696 ng·h/mL, the “AUC0-t, MEDIAN” value [4] was 41.9251 ng·h/mL and the “AUC0-t, MIN” value [4] was 29.32878 ng·h/mL. For the same compound, the “AUC0-τ, MAX” value [4] was 36.08395 ng·h/mL, the “AUC0-τ, MIN” value [4] was 20.79198 ng·h/mL and the “Cave, MAX” value [4] was 1503.50 pg/mL. For the same compound, the “Cave, MEAN” value [4] was 1210.68 pg/mL, the “Cave, MEDIAN” value [4] was 1185.51 pg/mL and the “Cave, MIN” value [4] was 866.33 pg/mL. For the same compound, the “Cmax, MAX” value [4] was 4.957 ng/mL, the “Cmax, MEAN” value [4] was 3.55315 ng/mL and the “Cmax, MEDIAN” value [4] was 3.734 ng/mL. For the same compound, the “Cmax, MIN” value [4] was 1977.00 pg/mL, the “Cmin, MAX” value [4] was 1149.67 pg/mL and the “Cmin, MEDIAN” value [4] was 903.50 pg/mL. The “Cmin, MIN” value [4] was 636.23 pg/mL, the “Kel, MAX” value [4] was 0.03 h⁻¹ and the “Kel, MEAN” value [4] was 0.03 h⁻¹. For the same compound, the “Kel, MEDIAN” value [4] was 0.03 h⁻¹, the “Kel, MIN” value [4] was 0.02 h⁻¹ and the “T1/2, MAX” value [4] was 33.65 h. The “T1/2, MEDIAN” value [4] was 26.51 h, the “T1/2, MIN” value [4] was 20.82 h and the “Tmax, MAX” value [4] was 3.00 h. For the same compound, the “Tmax, MEAN” value [4] was 1.31 h, the “Tmax, MIN” value [4] was 30 min and the “AUC0-inf, MAX” value [5] was 23.83848 ng·h/mL. For the same compound, the “AUC0-inf, MIN” value [5] was 7.25266 ng·h/mL, the “AUC0-t, MAX” value [5] was 18.12865 ng·h/mL and the “AUC0-t, MIN” value [5] was 4.81288 ng·h/mL. The “Cmax, MAX” value [5] was 3.977 ng/mL, the “Cmax, MIN” value [5] was 1584.00 pg/mL and the “Kel, MAX” value [5] was 0.2443 h⁻¹. The “Kel, MEAN” value [5] was 0.1829 h⁻¹, the “Kel, MEDIAN” value [5] was 0.1992 h⁻¹ and the “Kel, MIN” value [5] was 0.0359 h⁻¹. For the same compound, the “T1/2, MAX” value [5] was 19.29 h, the “T1/2, MIN” value [5] was 2.84 h and the “Tmax, MAX” value [5] was 3.00 h. The “Cmin prior to the morning dose higher than Cmin prior to the evening dose” value (steady state, Day 23 and Day 24) was “approximately 12%”.
